Reference: patent US7053107B2, “Indazole compounds and pharmaceutical compositions for inhibiting protein kinases, and methods for their use” (Agouron Pharmaceuticals, Inc., priority 2002, dated 2006)

Columns and labels:
[1] = tested on: human umbilical vein endothelial cells (HUVEC); assay: HUVEC Proliferation Assay (VEGF-stimulated); type: cell-based
How it was run: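 Serum-starved HUVEC (passage 3–4, F12K + 1% FBS, 24 h) pretreated 1 h with compound (final DMSO 0.1%), then stimulated with 6 ng/mL VEGF for 72 h. Proliferation read by 4 h MTT reduction, absorbance 595. IC50 from seven-point 0.5-log curves in triplicate; screening % inhibition normalised to VEGF-only and starvation controls.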

FGF-R1 = target: T1, FGF-R1 (Homo sapiens, UniProt P11362, C488A/C584S/L457V); assay: Fibroblast Growth Factor (FGF-R) spectrophotometric assay; type: biochemical; conditions: for inhibition at 1 µM: 1 μM compound, read-out: FGF-P % inhibit @1 μM
T1 construct: starting from the endogenous methionine residue 456 to glutamate 766; made in house; host or cells: baculovirus vector expression system
T1 sequence (P11362 456-766 L457V/C488A/C584S): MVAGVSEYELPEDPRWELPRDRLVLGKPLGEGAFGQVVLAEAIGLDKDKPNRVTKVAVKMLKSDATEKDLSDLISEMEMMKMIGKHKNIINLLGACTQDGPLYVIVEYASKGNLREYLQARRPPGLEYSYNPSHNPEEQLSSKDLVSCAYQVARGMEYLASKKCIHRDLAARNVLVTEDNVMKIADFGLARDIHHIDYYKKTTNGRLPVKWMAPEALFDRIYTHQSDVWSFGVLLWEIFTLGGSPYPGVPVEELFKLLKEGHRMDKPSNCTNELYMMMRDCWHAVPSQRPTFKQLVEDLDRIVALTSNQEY
How it was run: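 Baculovirus-expressed human FGF-R1 kinase domain (Met456–Glu766; L457V/C488A/C584S), 50 nM, with 2 mM ATP and 15 mM poly(E4Y1) in HEPES pH 7.5. ADP formation coupled via PK/LDH to NADH oxidation, read as A340 decrease. Ki from activity across varying compound concentrations.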

[2] = target: T2, unphosphorylated VEGF-R2Δ50 (Homo sapiens, UniProt P35968, DEL940-989/E990V); assay: VEGF-R2 coupled spectrophotometric assay, unphosphorylated construct (FLVK); type: biochemical; conditions: % inhibition at 50 nM compound; read-out: FLVK Ki % inh @ 50 nM
T2 construct: VEGF-R2Δ50 contains residues 806–939 and 990–1171; made in house; host or cells: baculovirus/insect cell system
T2 sequence (P35968 with tags, fused parts or gaps DEL940-989/E990V limits assumed): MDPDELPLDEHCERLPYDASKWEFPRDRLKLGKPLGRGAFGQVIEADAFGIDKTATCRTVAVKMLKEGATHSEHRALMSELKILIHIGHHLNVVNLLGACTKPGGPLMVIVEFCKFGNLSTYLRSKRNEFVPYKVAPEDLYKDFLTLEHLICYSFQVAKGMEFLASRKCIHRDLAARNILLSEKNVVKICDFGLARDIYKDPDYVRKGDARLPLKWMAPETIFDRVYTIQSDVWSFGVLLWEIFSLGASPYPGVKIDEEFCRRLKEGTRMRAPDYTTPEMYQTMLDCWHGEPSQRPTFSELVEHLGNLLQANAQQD
How it was run: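 Human VEGF-R2Δ50 kinase (residues 806–939/990–1171, baculovirus-expressed; autophosphorylated form pre-treated with 3 mM ATP, 4° C, 2 h), 5–40 nM, with poly(E4Y1) in 200 mM HEPES pH 7.5; ADP coupled via PK/LDH to NADH oxidation at 340 nm. Phosphorylated: 1 mM ATP, 5.1 mM poly(E4Y1), 25 mM MgCl2; unphosphorylated: 3 mM ATP, 20 mM poly(E4Y1), 60 mM MgCl2, 2 mM MnCl2. Ki from activity at varying compound levels.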

inhibition at 1 µM (FGF-R1) [%]	inhibition at 0.05 µM [2] [%]	Ki (FGF-R1; second value in the FGF-P cell, Ki) [nM]	Structure (SMILES)	IC50 [1] [pM]
80	89	–	O=C(NC1CC1)c1ccccc1Nc1ccc2c(/C=C/c3ccccn3)n[nH]c2c1 [Example 3(d), N-Cyclopropyl-2-[3-((E)-2-pyridin-2-yl-vinyl)-1H-indazol-6-ylamino]-benzamide]	400
85	96	–	COc1ccccc1CNC(=O)c1ccccc1Nc1ccc2c(/C=C/c3ccccn3)n[nH]c2c1 [Example 3(h), N-(2-Methoxy-benzyl)-2-[3-((E)-2-pyridin-2-yl-vinyl)-1H-indazol-6-ylamino]-benzamide]	1600
36	74	–	C=C(C)CNC(=O)c1ccccc1Nc1ccc2c(/C=C/c3ccccn3)n[nH]c2c1 [Example 3(k), N-(2-Methyl-allyl)-2-[3-((E)-2-pyridin-2-yl-vinyl)-1H-indazol-6-ylamino]-benzamide]	800
39	94	–	O=C(NCC#CCO)c1ccccc1Nc1ccc2c(/C=C/c3ccccn3)n[nH]c2c1 [Example 64, N-(4-Hydroxy-but-2-ynyl)-2-[3-(2-pyridin-2-yl-vinyl)-1H-indazol-6-ylamino]-benzamide]	150

The next lines start with the compound.

Structure (SMILES)	inhibition at 1 µM (FGF-R1) [%]	inhibition at 0.05 µM [2] [%]	Ki (FGF-R1; second value in the FGF-P cell, Ki) [nM]	IC50 [1] [pM]
Cc1ccnc(/C=C/c2n[nH]c3cc(Nc4ccccc4C(=O)NC4CC4)ccc23)c1 [Example 2(h), N-Cyclopropyl-2-{3-[(E)-2-(4-methyl-pyridin-2-yl)-vinyl]-1H-indazol-6-ylamino}-benzamide]	75	84	–	1600
O=C(NC1CCC1)c1ccccc1Nc1ccc2c(/C=C/c3ccccn3)n[nH]c2c1 [Example 3(j), N-Cyclobutyl-2-[3-((E)-2-pyridin-2-yl-vinyl)-1H-indazol-6-ylamino]-benzamide]	43	80	–	1700
Cc1cc(C)nc(/C=C/c2n[nH]c3cc(Nc4ccccc4C(=O)NCC#CCO)ccc23)c1 [Example 10, 2-{3-[(E)-2-(4,6-Dimethyl-pyridin-2-yl)-vinyl]-1H-indazol-6-ylamino}-N-(4-hydroxy-but-2-ynyl)-benzamide]	38	76	197	670
C#CCNC(=O)c1ccccc1Nc1ccc2c(/C=C/c3cc(C)ccn3)n[nH]c2c1 [Example 32, 2-{3-[(E)-2-(4-Methyl-pyridin-2-yl)-vinyl]-1H-indazol-6-ylamino}-N-prop-2-ynyl-benzamide]	70	78	–	610
